Results taken from paper PMC11237654, “Optimization of quenched fluorescent peptide substrates of SARS-CoV-2 3CL^pro main protease (Mpro) from proteomic identification of P6—P6' active site specificity” (Journal of Virology, 2024).
Several values for one entry are separate records, joined by “and”; a condition that tells them apart may be missing. Equal values may be shown once. Read-outs that look alike come from different tables or passages of the source.

Columns and labels:
SARS-CoV-2 3CL^pro [1] = target: T1, SARS-CoV-2 3CL^pro (Severe acute respiratory syndrome coronavirus 2, UniProt P0DTD1, Q3569A)
SARS-CoV-2 3CL^pro [2] = target: T1, SARS-CoV-2 3CL^pro; remark: listed apart in the source
SARS-CoV-2 3CL^pro [3] = target: T1, SARS-CoV-2 3CL^pro; details: pH 6.9

Substance: AAVALQ↓XAHHYAYR [listing 1 of 7 here]
- ^app(kcat/KM) (SARS-CoV-2 3CL^pro [1]; pH 6.9): No cleavage

Substance: AAVALQ↓XAHHYAYR [listing 2 of 7 here]
- ^app(kcat/KM) (SARS-CoV-2 3CL^pro [1]; pH 6.9): No cleavage

Substance: AAVALQ↓XAHHYAYR [T]
- ^app(kcat/KM) (SARS-CoV-2 3CL^pro [1]; pH 6.9): No cleavage

Substance: AAVALQ↓XAHHYAYR [P]
- ^app(kcat/KM) (SARS-CoV-2 3CL^pro [1]; pH 6.9): No cleavage

Substance: AAVALQ↓XAHHYAYR [listing 3 of 7 here]
- ^app(kcat/KM) (SARS-CoV-2 3CL^pro [1]; pH 6.9): No cleavage

Substance: AAVALQ↓XAHHYAYR [listing 4 of 7 here]
- ^app(kcat/KM) (SARS-CoV-2 3CL^pro [1]; pH 6.9): 45.0 ± 0.6 M⁻¹ s⁻¹

Substance: VALQ↓GAHRVALQ↓XAHYR [Leu]
- cleavage at second (test) site with P1' X (SARS-CoV-2 3CL^pro [1]): minimal cleavage

Substance: AAVALQ↓XAHHYAYR [E]
- ^app(kcat/KM) (SARS-CoV-2 3CL^pro [1]; pH 6.9): No cleavage

Substance: AAVALQ↓XAHHYAYR [D]
- ^app(kcat/KM) (SARS-CoV-2 3CL^pro [1]; pH 6.9): No cleavage

Substance: AAVALQ↓XAHHYAYR [listing 5 of 7 here]
- ^app(kcat/KM) (SARS-CoV-2 3CL^pro [1]; pH 6.9): No cleavage

Substance: Mca-RVALQ↓XAHYK(Dnp)RR [QFS1-S1']
- kcat/KM (SARS-CoV-2 3CL^pro [2]): 13,696.8 M^−1·s^−1 and 13,696.8 ± 269

Substance: AAVALQ↓XAHHYAYR [M]
- ^app(kcat/KM) (SARS-CoV-2 3CL^pro [1]; pH 6.9): 65.8 ± 1.4 M⁻¹ s⁻¹

Substance: AAVALQ↓XAHHYAYR [N]
- ^app(kcat/KM) (SARS-CoV-2 3CL^pro [1]; pH 6.9): 71.8 ± 3.2 M⁻¹ s⁻¹

Substance: AAVALQ↓XAHHYAYR [C]
- ^app(kcat/KM) (SARS-CoV-2 3CL^pro [1]; pH 6.9): No cleavage

Substance: AAVALX↓SAHHYAYR [P1-His]
- ^app(kcat/KM) (SARS-CoV-2 3CL^pro [1]): 222 M⁻¹ s⁻¹

Substance: AAVALQ↓XAHHYAYR [G]
- ^app(kcat/KM) (SARS-CoV-2 3CL^pro [1]; pH 6.9): 1,079.1 ± 12.6 M^−1s^−1

Substance: AAVALQ↓XAHHYAYR [W]
- ^app(kcat/KM) (SARS-CoV-2 3CL^pro [1]; pH 6.9): No cleavage

Substance: AAVALQ↓XAHHYAYR [listing 6 of 7 here]
- ^app(kcat/KM) (SARS-CoV-2 3CL^pro [1]; pH 6.9): 1,522.0 ± 7.6 M^−1s^−1

Substance: Mca-RVALQ↓XAHYK(Dnp)RR [QFS1-A1']
- kcat/KM (SARS-CoV-2 3CL^pro [2]): 13,131.0 M^−1·s^−1 and 13,131.0 ± 207

Substance: AAVALQ↓XAHHYAYR [S]
- ^app(kcat/KM) (SARS-CoV-2 3CL^pro [1]): 1,528 M^−1s^−1
- ^app(kcat/KM) (SARS-CoV-2 3CL^pro [1]; pH 6.9): 1,519.1 ± 6.2 M^−1s^−1

Substance: AAVALQ↓XAHHYAYR [I]
- ^app(kcat/KM) (SARS-CoV-2 3CL^pro [1]; pH 6.9): No cleavage

Substance: AAVALQ↓XAHHYAYR [K]
- ^app(kcat/KM) (SARS-CoV-2 3CL^pro [1]; pH 6.9): No cleavage

Substance: Mca-RVALQ↓XAHYK(Dnp)RR [QFS1-G1']
- kcat/KM (SARS-CoV-2 3CL^pro [2]): 4,515.7 M^−1·s^−1 and 4,515.7 ± 248

Substance: AAVALQ↓XAHHYAYR [listing 7 of 7 here]
- ^app(kcat/KM) (SARS-CoV-2 3CL^pro [1]; pH 6.9): No cleavage

Substance: AAVALM↓SAHHYAYR [P1-Met]
- ^app(kcat/KM) (SARS-CoV-2 3CL^pro [1]): 37 M⁻¹ s⁻¹
- ^app(kcat/KM) (SARS-CoV-2 3CL^pro [3]): 37 M⁻¹ s⁻¹
